Results as given in ChEMBL document CHEMBL1201862, “PubChem BioAssay data set” (2004).
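Growth conditions: 96-well plates. Treatment: test compound, 48 hours, 5 concentrations. Analysis: linear interpolation between bracketing concentrations; unreached endpoints set to highest concentration. Abbreviation: GI50, concentration required for 50% inhibition of growth.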 Active and inactive are the calls of the source. Cut-off read from the data, not from the text of the source: active = GI50 up to about 1.1 µM and inactive = higher.

Key:
Test in all cases: NCI tumour cell line growth inhibition, 48 h
[1] = tested on: NCI/ADR-RES
[2] = tested on: DU-145
[3] = tested on: PC-3
[4] = tested on: SW-620
[5] = tested on: NCI-H23
[6] = tested on: UO-31
[7] = tested on: SK-MEL-5
[8] = tested on: CAKI-1
[9] = tested on: BT-549
[10] = tested on: MCF7
[11] = tested on: 786-0
[12] = tested on: LOX IMVI
[13] = tested on: SK-OV-3
[14] = tested on: MDA-MB-231
[15] = tested on: M14
[16] = tested on: SR
[17] = tested on: HOP-62
[18] = tested on: SK-MEL-28
[19] = tested on: SNB-19
[20] = tested on: NCI-H460

Measured: GI50

COc1ccc2c(c1)CC1COc3cc(OC)ccc3C1O2 (stereo not drawn)
inactive: [1] 72.6 µM | [2] > 100 µM | [3] 79.8 µM | [4] > 100 µM | [5] > 100 µM | [6] > 100 µM | [7] 72.3 µM | [8] > 100 µM | [9] 44.8 µM | [10] > 100 µM | [11] 38.1 µM | [12] > 100 µM | [13] > 100 µM | [14] > 100 µM | [15] > 100 µM | [16] > 100 µM | [17] > 100 µM

COc1cc(C(=O)O)c(-c2cc3c(cc2C=O)OCO3)c(OC)c1OC
inactive: [1] > 10 µM | [2] > 10 µM | [3] > 10 µM | [4] > 10 µM | [5] > 10 µM | [7] > 10 µM | [8] > 10 µM | [9] > 10 µM | [10] > 10 µM | [11] > 10 µM | [12] > 10 µM | [13] > 10 µM | [18] > 10 µM | [14] > 10 µM | [15] > 10 µM | [16] > 10 µM | [17] > 10 µM | [19] > 10 µM

COc1ccc2cc1Oc1ccc(cc1)C(Sc1ccccc1)CCOC(=O)CC2 (stereo not drawn)
inactive: [1] > 100 µM | [2] > 100 µM | [3] > 100 µM | [4] > 100 µM | [5] > 100 µM | [6] > 100 µM | [7] 63.1 µM | [8] > 100 µM | [9] > 100 µM | [10] > 100 µM | [11] > 100 µM | [12] > 100 µM | [13] > 100 µM | [18] > 100 µM | [14] 54 µM | [15] > 100 µM | [16] > 100 µM | [17] > 100 µM | [19] > 100 µM

N#C[BH2-][n+]1cn(C2CC(OP(=O)(O)OCC3OC(n4cnc5c(N)ncnc54)CC3O)C(CO)O2)c2nc(N)[nH]c(=O)c21 (stereo not drawn)
inactive: [1] > 100 µM | [2] > 100 µM | [3] > 100 µM | [4] > 100 µM | [5] > 100 µM | [6] > 100 µM | [7] > 100 µM | [8] > 100 µM | [9] > 100 µM | [10] > 100 µM | [11] > 100 µM | [12] > 100 µM | [13] > 100 µM | [18] > 100 µM | [14] > 100 µM | [20] > 100 µM | [16] > 100 µM | [17] > 100 µM | [19] > 100 µM
